Columns and labels:
[1] = Stability test of HPLC-purified gemcitabine analogs at different pH conditions; format: physicochemical; conditions: 200 μM
Experimental: The solution was then incubated for 4 hours at 40° C. [table] HPLC analysis: 100 μl of the incubated solution was loaded onto the Vydac C18 analytical column 4.6/250 at 1 ml/min water with the following procedures: a. Inject 100 μl the incubated solution; b. Water for 5 minutes at 1 ml/min; c. 0-100% methanol over 30 minutes; d. Back to 20% methanol. Analysis: The standard HPLC analysis software was used to quantitate the area under each peak. Degradation peaks are quantitated as a percentage of the peak of the same amount of control sample (no heat treatment).

[2] = Compound solubility in media; format: physicochemical; conditions: DMEM+2% FBS cell culture media, 37 °C, plasma or biological fluid, kinetic from dmso stock; DMEM+2% FBS media
Experimental: (§1) Treating the cells: Media (DMEM+2% FBS) was pre-warmed to 37° C. […] The 96-well plate was removed from the 37° C. incubator, and the media replaced on the plate with the serial dilutions of the test drug. The plate was then returned to 37° C. for 48 h.

[3] = TC50 MTS assay with human cancer cell lines: Huh7; format: cell-based; conditions: human, Huh7 cells; 96 h drug treatment
Experimental: (§2) Plating Cells: The Huh7, HEPG2, HEK293, MCF-7, PK9, RPK9, or BxPC3 cells were passaged when they were about 70% confluent. The cells were counted using a hemocytometer, and then diluted cells to 0.5×10^5 cells per mL in DMEM+10% FBS. 100 µL of the cells (5,000 cells) were plated per well in a clear 96-well plate. The cells were allowed to attach for 24 hours at 37° C.
(§3) Treating the cells: Pre-warm the DMEM media without phenol red+2% FBS media to 37° C. […] This will bring the final DMSO concentration to 0.5%. Use these 0.5 mM dilutions to further serially the drugs in DMEM without phenol red+2% FBS+0.5% DMSO. This will keep the concentration of DMSO in each condition identical. Remove the 96-well plate from the 37° C. incubator. Replace the media on the plate with the dilutions of the drugs. Stagger these treatments by 1 h and write the treatment time on each set of plates. Return to 37° C. for 48 h or 96 h as indicated.
(§4) MTS Assay: The reagents from CellTiter 96 kit (Promega Corporation, Madison, Wis.) were thawed at room temperature in the dark for 1 h. The 96-well plate was removed from the 37° C. incubator at 48 h after drug treatment. 20 μL of the combined MTS/PMS reagent to each well of the plate, mixed, and the plate returned to 37° C. The absorbance of each well at 490 nm and 650 nm was determined using the Flexstation 3 microplate reader in endpoint mode every hour for 3 h. The solutions in the wells were mixed prior to each reading. Fit Data to the Emax model: y=(Emax*x)/(TC50+x), where Emax is the maximum inhibition and TC50 is the inhibitory dose 50%. Alternatively, fit the data to the Emax sigmoidal model: y=(Emax*x^slope)/(TC50^slope+x^slope), where slope is the Hill Slope.
(§5) Each TC50 was the average value of three measurements as described herein. […] The RPK9 cells are deficient in deoxycytidine kinase (“dCK”) activity, an enzyme required for the initial phosphorylation of dFdC to dFdCMP (see FIG. 2).

[4] = TC50 MTS assay with human cancer cell lines: MCF-7; format: cell-based; conditions: MCF-7 cells, 96 h drug treatment
Experimental: as §2, §3, §4, §5

[5] = TC50 MTS assay with human cancer cell lines: HEPG2; format: cell-based; conditions: HEPG2 cells, 96 h drug treatment
Experimental: as §2, §3, §4, §5

[6] = TC50 MTS assay with human cancer cell lines: HEK293; format: cell-based; conditions: HEK293 cells, 96 h drug treatment
Experimental: as §2, §3, §4, §5

[7] = system: HCV luciferase replicon; experiment: HCV luciferase replicon IC50 assay in Huh7 cells; conditions: for IC50: Hepatitis C virus; for Therapeutic Index (TC50/IC50): TC50 in Huh7 / IC50 HCV replicon, 48 h
Experimental: Plating Cells: The Luciferase replicon cell line was passaged when it was at about 70% confluency. The cells were counted by using a hemocytometer and diluted to 1×10^5 cells per mL in DMEM+10% FBS+[…] G415. The cells were plated as follows: 100 μL of the cells (10,000 cells) per well in a white-walled 96-well plate. The cells were allowed to attach for 24 hours at 37° C.
as §1
Luciferase Assay: The Bright-Glo reagent (Promega Corporation, Madison, Wis.) was removed from the −80° C. freezer and allowed to thaw it at 4° C. in the dark. The amount of reagent necessary for the experiment (3.65 mL) was removed, and the remaining reagent was returned to −80° C. The Glo Lysis Buffer and the Bright Glow reagent were allowed to warm to room temperature for 30 min in the dark. The 96 well plate was removed from the incubator and the cells to allowed cool to room temperature for 30 min. The media was removed from the cells, and each well was gently washed in 100 μL of phosphate buffered saline (PBS). The PBS was removed and then 50 μL of the Glo Lysis Buffer was added to each well, followed by gently rocking the plate for 15 min at room temperature in the dark to ensure complete cell lysis. To each well of the 96-well plate was added 50 μL of the Bright Glo reagent and it was mixed well with the lysate. The plate was inserted into a GloMax 96 plate reader and allowed to sit for 5 min in the dark for the luciferase reaction to reach a steady state. The luminescence on the plate was read by using the pre-installed “Bright Glo” Promega program (Synergy Software) and the data were collected and saved. The data were fit to a 4 parameter logistic curve using Kaleidagraph using the following equation: 100/(1+(x/m3)^m4).
The data in Table 1 were determined for cells exposed to drug for 48 h. The IC50 is the concentration of each compound necessary to inhibit the replication of the HCV luciferase replicon to 50%.
That is, the cells were exposed to drug for 2 h at 37° C., followed by 46 h at 37° C. or incubated in the presence of drug for 48 h at 37° C.

[8] = Pretreatment (control sample, no heat treatment)
[9] = Huh-7, 48 h, Huh7 cells containing HCV luciferase replicon, cells exposed to drug for 48 h

SMILES	% remaining [1, 8] [%]	% remaining ([1]; pH 1, 4 hours at 40° C.) [%]	% remaining ([1]; pH 2, 4 hours at 40° C.) [%]	% remaining ([1]; pH 4, 4 hours at 40° C.) [%]	% remaining ([1]; pH 6, 4 hours at 40° C.) [%]	% remaining ([1]; pH 8, 4 hours at 40° C.) [%]	solubility [2] [µM]	CC50 at 96 h [3] [nM]	CC50 at 96 h [4] [nM]	CC50 at 96 h [5] [nM]	CC50 at 96 h [6] [nM]	IC50 [7, 9] [nM]	Therapeutic Index (TC50/IC50) [7]	IC50 ([7]; Huh-7, 48 h, cells incubated with drug continuously for 48 h (Table 5)) [nM]	IC50 ([7]; Huh-7, cells incubated with drug for 2 h, followed by 46 h without drug) [nM]
O=C(Nc1ccn([C@@H]2O[C@H](CO)[C@@H](O)C2(F)F)c(=O)n1)c1cc(Cl)cc(Cl)c1 [GCB, N^4-(3,5-Dichlorobenzoyl)gemcitabine]	100	35	82	98.4	99.6	35.4	< 500	4170 ± 1060	326 ± 88	633 ± 207	1190 ± 180	25.5 ± 2.2	4310	–	–
COc1cc(C(=O)Nc2ccn([C@@H]3O[C@H](CO)[C@@H](O)C3(F)F)c(=O)n2)cc(OC)c1OC [GTB, N^4-(3,4,5-Trimethoxybenzoyl)gemcitabine]	100	86	87	98.6	99.5	82.7	> 500	5050 ± 1220	566 ± 118	1670 ± 420	1280 ± 260	49.3 ± 8.8	10040	49.3 ± 8.8	2770 ± 265
